Data as given in patent US20240109891A1, “NOVEL SUBSTITUTED TRICYCLIC AZA-HETEROCYCLES AS SOS1 INHIBITORS” (Viva Star Biosciences (Suzhou) Co., Ltd., priority 2021, published 2024).

Legend:
[1] = target: T1, KRAS G12C and SOS1 proteins (Homo sapiens, UniProt Q07889); assay: KRAS-G12C/SOS1 binding assay (HTRF); details: Tag1-SOS1 / Tag2-KRAS G12C, 10 μM GTP
T1 construct: purchased Cisbio 63ADK000CB16PEG
T1 sequence (Q07889 1-1333): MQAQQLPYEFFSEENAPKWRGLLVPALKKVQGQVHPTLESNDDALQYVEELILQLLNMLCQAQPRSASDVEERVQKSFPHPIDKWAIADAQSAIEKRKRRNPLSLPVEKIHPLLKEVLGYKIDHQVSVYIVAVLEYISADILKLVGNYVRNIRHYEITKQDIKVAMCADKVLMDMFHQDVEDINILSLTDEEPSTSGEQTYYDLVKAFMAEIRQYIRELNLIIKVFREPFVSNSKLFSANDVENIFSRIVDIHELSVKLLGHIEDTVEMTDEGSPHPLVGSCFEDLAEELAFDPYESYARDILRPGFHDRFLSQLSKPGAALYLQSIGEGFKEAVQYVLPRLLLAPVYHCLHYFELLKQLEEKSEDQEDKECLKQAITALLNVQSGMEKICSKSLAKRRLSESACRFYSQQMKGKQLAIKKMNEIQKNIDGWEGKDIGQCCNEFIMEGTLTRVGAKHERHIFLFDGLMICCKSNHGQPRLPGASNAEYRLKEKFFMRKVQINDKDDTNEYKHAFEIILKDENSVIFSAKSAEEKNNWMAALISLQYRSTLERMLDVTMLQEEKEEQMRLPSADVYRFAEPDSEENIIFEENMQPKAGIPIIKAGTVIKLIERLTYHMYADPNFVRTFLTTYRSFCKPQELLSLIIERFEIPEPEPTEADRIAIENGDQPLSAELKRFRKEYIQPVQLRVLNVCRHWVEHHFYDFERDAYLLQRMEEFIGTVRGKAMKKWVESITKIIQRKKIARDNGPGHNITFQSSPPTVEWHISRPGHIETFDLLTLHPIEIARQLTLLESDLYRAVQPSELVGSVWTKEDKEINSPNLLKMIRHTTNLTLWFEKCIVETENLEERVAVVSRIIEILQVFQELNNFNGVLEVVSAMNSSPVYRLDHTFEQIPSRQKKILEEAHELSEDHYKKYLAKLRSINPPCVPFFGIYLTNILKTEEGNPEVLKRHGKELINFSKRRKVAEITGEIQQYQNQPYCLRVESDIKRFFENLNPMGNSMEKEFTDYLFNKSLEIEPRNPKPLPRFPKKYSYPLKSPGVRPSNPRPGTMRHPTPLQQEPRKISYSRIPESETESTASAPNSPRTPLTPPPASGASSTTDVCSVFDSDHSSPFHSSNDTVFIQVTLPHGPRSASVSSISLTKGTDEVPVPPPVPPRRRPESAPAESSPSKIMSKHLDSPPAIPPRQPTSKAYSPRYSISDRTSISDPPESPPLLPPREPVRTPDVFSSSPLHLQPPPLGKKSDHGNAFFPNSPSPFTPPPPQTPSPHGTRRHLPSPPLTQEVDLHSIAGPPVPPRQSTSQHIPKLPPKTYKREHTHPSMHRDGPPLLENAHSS
Experimental: KRAS-WT (or G12C/G12D/G12V)/SOS1 Binding Assay
Low IC50 values are indicative of high potency of the SOS1 inhibitor compounds in this assay setting.
The KRAS-WT (or G12C/G12D/G12V)/SOS1 binding assay is performed using an assay kit (Cisbio, Cat #63ADK000CB15PEG or 63ADK000CB16PEG/63ADK000CB17PEG/63ADK000CB18PEG) according to the procedure recommended by the manufacturer. • 1) Thaw and prepare the working solution of Tag1-SOS1 protein and Tag2-KRAS-WT (or G12C/G12D/G12V) protein with final concentration of 10 μM GTP (Sigma, Cat #V900868). • 2) Thaw and prepare the working solution of anti-Tag1-Tb^3+ anti-Tag2-XL665. • 3) Dispense 2 μL of serially diluted compound, 4 μL of Tag1-SOS1 protein and 4 μL of Tag2-KRAS-WT (or G12C/G12D/G12V) protein with GTP into a ProxiPlate-384 Plus, white 384-shallow well microplate (PerkinElmer, Cat #6008280). • 4) Incubate the plate for 15 minutes at room temperature. • 5) Dispense 10 μL of pre-mixed anti-Tag1-Tb^3+ and anti-Tag2-XL665 into the plate. • 6) Seal the plate and incubate for 2 hours at room temperature. • 7) Remove the plate sealer and read on PHERAstar FS (BMG LABTECH, PHERAstar FS). • 8) Calculate the ratio of the acceptor and donor emission signals for each individual well using the following equation.
[formula] • 9) IC50 values are fitted and calculated by HTRF signal values and log of compound concentrations to nonlinear regression [Log (inhibitor) vs. Response−Variable Slope (four parameters)] using the GraphPad Prism 8.0.

[2] = target: T2, KRAS-WT and SOS1 proteins (Homo sapiens, UniProt Q07889); assay: KRAS-WT/SOS1 binding assay (HTRF); details: Tag1-SOS1 / Tag2-KRAS-WT, 10 μM GTP, read-out: Activity Data in Kras: SOS1 Assay, Wild Type
T2 construct: purchased Cisbio 63ADK000CB15PEG
T2 sequence (Q07889 1-1333): T1 sequence (Q07889 1-1333)

[3] = target: T3, KRAS G12D and SOS1 proteins (Homo sapiens, UniProt Q07889); assay: KRAS-G12D/SOS1 binding assay (HTRF); details: Tag1-SOS1 / Tag2-KRAS G12D, 10 μM GTP
T3 construct: purchased Cisbio 63ADK000CB17PEG
T3 sequence (Q07889 1-1333): T1 sequence (Q07889 1-1333)

Compound | IC50 [1] [µM] | IC50 [2] [µM] | IC50 [3] [µM]
COc1cc2c(cc1-c1ccc(=O)n(C)c1)c(N[C@H](C)c1cccc(C(F)F)c1F)nc1ccnn12 [Example 48, (R)-5-(5-((1-(3-(difluoromethyl)-2-fluorophenyl)ethyl)amino)-8-methoxypyrazolo[1,5-a]quinazolin-7-yl)-1-methylpyridin-2(1H)-one] | 0.1 to 0.5 |  | 
Cc1nc(N[C@H](C)c2cccc(C(F)F)c2F)c2cc(-c3ccc(=O)n(C)c3)c3nncn3c2n1 [Example 4, (R)-5-(4-((1-(3-(difluoromethyl)-2-fluorophenyl)ethyl)amino)-2-methyl-[1,2,4]triazolo[4′,3′:1,6]pyrido[2,3-d]pyrimidin-6-yl)-1-methylpyridin-2(1H)-one] | < 0.1 |  | 
COc1cc2c(cc1C1=CCOCC1)c(N[C@H](C)c1cccc3c1CCC3(F)F)nc1ccnn12 [Example 49, (R)-N-(1-(1,1-difluoro-2,3-dihydro-1H-inden-4-y1)ethyl)-7-(3,6-dihydro-2H-pyran-4-yl)-8-methoxypyrazolo[1,5-a]quinazolin-5-amine] | 0.1 to 0.5 |  | 
Cc1nc(N[C@H](C)c2cccc3c2CCC3(F)F)c2cc(-c3ccc(=O)n(C)c3)c3nncn3c2n1 [Example 3, (R)-5-(4-((1-(1,1-difluoro-2,3-dihydro-1H-inden-4-yl)ethyl)amino)-2-methyl-[1,2,4]triazolo[4′,3′:1,6]pyrido[2,3-d]pyrimidin-6-yl)-1-methylpyridin-2(1H)-one] | 0.1 to 0.5 |  | 
Cc1nc(N[C@H](C)c2cccc(C(F)(F)CO)c2)c2cc(-c3ccc(=O)n(C)c3)c3nncn3c2n1 [Example 6, (R)-5-(4-((1-(3-(1,1-difluoro-2-hydroxyethyl)phenyl)ethyl)amino)-2-methyl-[1,2,4]triazolo[4′,3′:1,6]pyrido[2,3-d]pyrimidin-6-yl)-1-methylpyridin-2(1H)-one] | < 0.1 |  | 
C[C@@H](Nc1nc2ccnn2c2cc(=O)n(C3(C)CC3)cc12)c1cccc(C(C)(F)F)c1F [Example 64, (R)-5-((1-(3-(1,1-difluoroethyl)-2-fluorophenyl)ethyl)amino)-7-(1-methylcyclopropyl)pyrazolo[1,5-a]pyrido[3,4-e]pyrimidin-8(7H)-one] |  | < 0.1 | < 0.1
Cc1nc(N[C@H](C)c2cc(N)cc(C(F)(F)F)c2)c2cc(O[C@H]3CCOC3)c3nncn3c2n1 [Example 18, N-[(1R)-1-[3-amino-5-(trifluoromethyl)phenyl]ethyl]-12-methyl-7-(oxolan-3-yloxy)-2,4,5,11,13-pentaazatricyclo[7.4.0.0^{2,6}]trideca-1(9),3,5,7,10,12-hexaen-10-amine] |  | < 0.1 | < 0.1
Cc1nc(N[C@H](C)c2cccc(C(F)(F)F)c2)c2cc(OC3CCOC3)c3c(cnn3C)c2n1 (stereo partly drawn) [Example 35, 2,7-dimethyl-6-(oxolan-3-yloxy)-N-[(1R)-1-[3-(trifluoromethyl)phenyl]ethyl]-7H-pyrazolo[3,4-h]quinazolin-4-amine] |  | 0.1 to 0.5 | 0.1 to 0.5
C[C@@H](Nc1nc2ccnn2c2cc(=O)n([C@H]3CCOC3)cc12)c1cccc(C(F)(F)CO)c1 [Example 72, 5-(((R)-1-(3-(1,1-difluoro-2-hydroxyethyl)phenyl)ethyl)amino)-7-((S)-tetrahydrofuran-3-yl)pyrazolo[1,5-a]pyrido[3,4-e]pyrimidin-8(7H)-one] |  | < 0.1 | < 0.1
Cc1nc(N[C@H](C)c2cccc(C(F)(F)CO)c2)c2cc(O[C@H]3CCOC3)c3nncn3c2n1 [Example 20, 2,2-difluoro-2-(3-((R)-1-((2-methyl-6-(((S)-tetrahydrofuran-3-yl)oxy)-[1,2,4]triazolo[4′,3′:1,6]pyrido[2,3-d]pyrimidin-4-yl)amino)ethyl)phenyl)ethan-1-ol] |  | < 0.1 | 0.1 to 0.5
CC(=O)N1CC[C@H](Oc2cc3c(N[C@H](C)c4cccc5c4CCC5(F)F)nc(C)nc3n3cnnc23)C1 [Example 21, 1-((S)-3-((4-(((R)-1-(1,1-difluoro-2,3-dihydro-1H-inden-4-yl)ethyl)amino)-2-methyl-[1,2,4]triazolo[4′,3′:1,6]pyrido[2,3-d]pyrimidin-6-yl)oxy)pyrrolidin-1-yl)ethan-1-one] |  | < 0.1 | < 0.1
Cc1nc(N[C@H](C)c2cccc(C(F)(F)CO)c2)c2cc(O[C@H]3CCOC3)c3c(cnn3C)c2n1 [Example 38, 2-(3-((R)-1-((2,7-dimethyl-6-(((S)-tetrahydrofuran-3-yl)oxy)-7H-pyrazolo[3,4-h]quinazolin-4-yl)amino)ethyl)phenyl)-2,2-difluoroethan-1-ol] |  | < 0.1 | < 0.1
COc1cc2c(cc1O[C@H]1CCOC1)c(N[C@H](C)c1cc(N)cc(C(F)(F)F)c1)nc1ccnn12 [Example 55, N-[(1R)-1-[3-amino-5-(trifluoromethyl)phenyl]ethyl]-8-methoxy-7-[(3S)-oxolan-3-yloxy]pyrazolo[1,5-a]quinazolin-5-amine] |  | 0.1 to 0.5 | 0.1 to 0.5
CC(=O)N1CCC(n2cc3c(N[C@H](C)c4cccc(C(F)(F)CO)c4)nc4ccnn4c3cc2=O)CC1 [Example 75, 11-(1-acetylpiperidin-4-yl)-8-{[(1R)-1-[3-(1,1-difluoro-2-hydroxyethyl)phenyl]ethyl]amino}-2,3,7,11-tetraazatricyclo[7.4.0.0^{2,6}]trideca-1(13),3,5,7,9-pentaen-12-one] |  | < 0.1 | < 0.1
Cc1nc(N[C@H](C)c2cccc(C(F)(F)CO)c2)c2cc(-c3ccc(=O)[nH]c3)c3[nH]ncc3c2n1 [Example 28, (R)-5-(4-((1-(3-(1,1-difluoro-2-hydroxyethyl)phenyl)ethyl)amino)-2-methyl-7H-pyrazolo[3,4-h]quinazolin-6-yl)pyridin-2(1H)-one] |  | < 0.1 | < 0.1
Cc1nc(N[C@H](C)c2cccc(C(F)(F)CO)c2)c2cc([C@H]3CC[C@@H](O)CC3)c3nncn3c2n1 [Example 15, Cis-(R)-4-(4-((1-(3-(1,1-difluoro-2-hydroxyethyl)phenyl)ethyl)amino)-2-methyl-[1,2,4]triazolo[4′,3′:1,6]pyrido[2,3-d]pyrimidin-6-yl)cyclohexan-1-ol] |  | < 0.1 | < 0.1
CC(=O)N1CCC(c2cc3c(N[C@H](C)c4cccc(C(F)(F)CO)c4)nc(C)nc3n3cnnc23)CC1 [Example 12, (R)-1-(4-(4-((1-(3-(1,1-difluoro-2-hydroxyethyl)phenyl)ethyl)amino)-2-methyl-[1,2,4]triazolo[4′,3′:1,6]pyrido[2,3-d]pyrimidin-6-yl)piperidin-1-yl)ethan-1-one] |  | < 0.1 | < 0.1
